Values after ≈ are worked out from the molar mass of the structure shown.
Experiments:
Enterococcus faecalis = assay: Compound was tested for antibacterial activity against gram positive Enterococcus faecalis 1373; format: functional; settings: Enterococcus faecalis; read-out: MIC
Pseudomonas aeruginosa [1] = assay: Compound was tested for antibacterial activity against gram negative Pseudomonas aeruginosa PAO1; format: functional; settings: Pseudomonas aeruginosa; read-out: MIC
[2] = tested on: Acinetobacter calcoaceticus; assay: Compound was tested for antibacterial activity against gram negative Acinetobacter calcoaceticus No.4; format: functional; settings: Acinetobacter calcoaceticus; read-out: MIC
Staphylococcus aureus [3] = assay: Compound was tested for antibacterial activity against gram positive Staphylococcus aureus JS-1; format: functional; settings: Staphylococcus aureus; read-out: MIC
Staphylococcus aureus [4] = assay: Compound was tested for antibacterial activity against gram positive Staphylococcus aureus KP-90-3; format: functional; settings: Staphylococcus aureus; read-out: MIC
Escherichia coli [5] = assay: Compound was tested for antibacterial activity against gram negative Escherichia coli CSH2/RK1; format: functional; settings: Escherichia coli; read-out: MIC
Klebsiella pneumoniae [6] = assay: Compound was tested for antibacterial activity against gram negative Klebsiella pneumoniae No.42; format: functional; settings: Klebsiella pneumoniae; read-out: MIC
Escherichia coli [7] = assay: Compound was tested for antibacterial activity against gram negative Escherichia coli NIHJ JC-2; format: functional; settings: Escherichia coli; read-out: MIC
Escherichia coli [8] = assay: Compound was tested for antibacterial activity against gram negative Escherichia coli CSH2/RE45; format: functional; settings: Escherichia coli; read-out: MIC
Escherichia coli [9] = assay: Compound was tested for antibacterial activity against gram negative Escherichia coli ML4707; format: functional; settings: Escherichia coli; read-out: MIC
Streptococcus pyogenes = assay: Compound was tested for antibacterial activity against gram positive Streptococcus pyogenes cook; settings: Streptococcus pyogenes; read-out: MIC
Enterobacter cloacae = assay: Compound was tested for antibacterial activity against gram negative Enterobacter cloacae Nek39; format: functional; settings: Enterobacter cloacae; read-out: MIC
Proteus mirabilis = assay: Compound was tested for antibacterial activity against gram negative Proteus mirabilis JY-10; format: functional; settings: Proteus mirabilis; read-out: MIC
Citrobacter freundii [10] = assay: Compound was tested for antibacterial activity against gram negative Citrobacter freundii No.7; format: functional; settings: Citrobacter freundii; read-out: MIC
Proteus vulgaris [11] = assay: Compound was tested for antibacterial activity against gram negative Proteus vulgaris No.33; format: functional; settings: Proteus vulgaris; read-out: MIC
Klebsiella oxytoca = assay: Compound was tested for antibacterial activity against gram negative Klebsiella oxytoca GN 10650; format: functional; settings: Klebsiella oxytoca; read-out: MIC
Staphylococcus aureus [12] = assay: Compound was tested for antibacterial activity against gram positive Staphylococcus aureus smith; format: functional
Staphylococcus aureus [13] = assay: Compound was tested for antibacterial activity against gram positive Staphylococcus aureus FDA 209P JC-1; format: functional; settings: Staphylococcus aureus; read-out: MIC
Citrobacter freundii [14] = assay: Compound was tested for antibacterial activity against gram negative Citrobacter freundii KP-29; format: functional; settings: Citrobacter freundii; read-out: MIC
Pseudomonas aeruginosa [15] = assay: Compound was tested for antibacterial activity against gram negative Pseudomonas aeruginosa AK109; format: functional; settings: Pseudomonas aeruginosa; read-out: MIC
Serratia marcescens = assay: Compound was tested for antibacterial activity against gram negative Serratia marcescens No.16-2; format: functional; settings: Serratia marcescens; read-out: MIC
Pseudomonas aeruginosa [16] = assay: Compound was tested for antibacterial activity against gram negative Pseudomonas aeruginosa K-13; format: functional; settings: Pseudomonas aeruginosa; read-out: MIC
Burkholderia cepacia = assay: Compound was tested for antibacterial activity against gram negative Burkholderia cepacia 23; format: functional; settings: Burkholderia cepacia; read-out: MIC
Proteus vulgaris [17] = assay: Compound was tested for antibacterial activity against gram negative Proteus vulgaris KS-134; format: functional; settings: Proteus vulgaris; read-out: MIC
Pseudomonas aeruginosa [18] = assay: Compound was tested for antibacterial activity against gram negative Pseudomonas aeruginosa KP-254; format: functional; settings: Pseudomonas aeruginosa; read-out: MIC
Klebsiella pneumoniae [19] = assay: Compound was tested for antibacterial activity against gram negative Klebsiella pneumoniae KC-1; format: functional; settings: Klebsiella pneumoniae; read-out: MIC

Row | Structure (SMILES) | MIC (Enterococcus faecalis) [µg/mL] | MIC (Pseudomonas aeruginosa [1]) [µg/mL] | MIC [2] [µg/mL] | MIC (Staphylococcus aureus [3]) [µg/mL] | MIC (Staphylococcus aureus [4]) [µg/mL] | MIC (Escherichia coli [5]) [µg/mL] | MIC (Klebsiella pneumoniae [6]) [µg/mL] | MIC (Escherichia coli [7]) [µg/mL] | MIC (Escherichia coli [8]) [µg/mL] | MIC (Escherichia coli [9]) [µg/mL] | MIC (Streptococcus pyogenes) [µg/mL] | MIC (Enterobacter cloacae) [µg/mL] | MIC (Proteus mirabilis) [µg/mL] | MIC (Citrobacter freundii [10]) [µg/mL] | MIC (Proteus vulgaris [11]) [µg/mL] | MIC (Klebsiella oxytoca) [µg/mL] | MIC (Staphylococcus aureus [12]) [µg/mL] | MIC (Staphylococcus aureus [13]) [µg/mL] | MIC (Citrobacter freundii [14]) [µg/mL] | MIC (Pseudomonas aeruginosa [15]) [µg/mL] | other results
1 | COc1c(N2CC[C@@](CO)(C(F)(F)F)C2)c(F)cc2c(=O)c(C(=O)O)cn(C3CC3)c12 | 0.39 (≈ 0.878 µM) | 12.5 (≈ 28.1 µM) | 1.56 (≈ 3.51 µM) | 0.05 (≈ 0.113 µM) | 3.13 (≈ 7.04 µM) | 25 (≈ 56.3 µM) | 3.13 (≈ 7.04 µM) | 1.56 (≈ 3.51 µM) | 25 (≈ 56.3 µM) | 0.05 (≈ 0.113 µM) | 0.39 (≈ 0.878 µM) | 6.25 (≈ 14.1 µM) | 0.39 (≈ 0.878 µM) | 25 (≈ 56.3 µM) | 1.56 (≈ 3.51 µM) | 3.13 (≈ 7.04 µM) | 0.025 (≈ 0.0563 µM) | 0.1 (≈ 0.225 µM) | > 100 | 12.5 (≈ 28.1 µM) | MIC (Serratia marcescens): 12.5 µg/mL (≈ 28.1 µM); MIC (Pseudomonas aeruginosa [16]): 50 µg/mL (≈ 113 µM); MIC (Burkholderia cepacia): 3.13 µg/mL (≈ 7.04 µM); MIC (Proteus vulgaris [17]): 100 µg/mL (≈ 225 µM); MIC (Pseudomonas aeruginosa [18]): > 100 µg/mL; MIC (Klebsiella pneumoniae [19]): 1.56 µg/mL (≈ 3.51 µM)
2 | COc1c(N2C[C@@H](C(F)(F)F)[C@@H](N)C2)c(F)cc2c(=O)c(C(=O)O)cn(C3CC3)c12.Cl | 0.39 | 3.13 | 0.2 | 0.05 | 1.56 | 3.13 | 0.39 | 0.2 | 3.13 | 0.1 | 0.39 | 3.13 | 0.2 | 3.13 | 0.39 | 0.39 | 0.025 | 0.05 | 100 | 6.25 | MIC (Serratia marcescens): 3.13 µg/mL; MIC (Pseudomonas aeruginosa [16]): 50 µg/mL; MIC (Burkholderia cepacia): 1.56 µg/mL; MIC (Proteus vulgaris [17]): 100 µg/mL; MIC (Pseudomonas aeruginosa [18]): > 100 µg/mL; MIC (Klebsiella pneumoniae [19]): 0.2 µg/mL
3 | COc1c(N2C[C@@H](N)[C@H](C(F)(F)F)C2)c(F)cc2c(=O)c(C(=O)O)cn(C3CC3)c12.O=C(O)C(F)(F)F | 0.39 | 3.13 | 0.2 | 0.05 | 3.13 | 3.13 | 0.39 | 0.39 | 3.13 | 0.05 | 0.39 | 3.13 | 0.2 | 3.13 | 0.39 | 0.39 | 0.05 | 0.1 | 100 | 6.25 | MIC (Serratia marcescens): 3.13 µg/mL; MIC (Pseudomonas aeruginosa [16]): 25 µg/mL; MIC (Burkholderia cepacia): 1.56 µg/mL; MIC (Proteus vulgaris [17]): 100 µg/mL; MIC (Pseudomonas aeruginosa [18]): > 100 µg/mL; MIC (Klebsiella pneumoniae [19]): 0.39 µg/mL
4 | NC1CCN(c2nc3c(cc2F)c(=O)c(C(=O)O)cn3-c2ccc(F)cc2F)C1 (centres undefined) [TOSUFLOXACIN] | 0.2 (≈ 0.495 µM) | 0.39 (≈ 0.965 µM) | 0.025 (≈ 0.0618 µM) | 0.05 (≈ 0.124 µM) | 12.5 (≈ 30.9 µM) | 0.39 (≈ 0.965 µM) | 0.025 (≈ 0.0618 µM) | 0.05 (≈ 0.124 µM) | 0.39 (≈ 0.965 µM) | 0.013 (≈ 0.0322 µM) | 0.1 (≈ 0.247 µM) | 0.2 (≈ 0.495 µM) | 0.05 (≈ 0.124 µM) | 0.39 (≈ 0.965 µM) | 0.05 (≈ 0.124 µM) | 0.05 (≈ 0.124 µM) | 0.025 (≈ 0.0618 µM) | 0.05 (≈ 0.124 µM) | > 12.5 | 0.39 (≈ 0.965 µM) | MIC (Serratia marcescens): 0.39 µg/mL (≈ 0.965 µM); MIC (Pseudomonas aeruginosa [16]): 6.25 µg/mL (≈ 15.5 µM); MIC (Burkholderia cepacia): 0.78 µg/mL (≈ 1.93 µM); MIC (Proteus vulgaris [17]): > 12.5 µg/mL; MIC (Pseudomonas aeruginosa [18]): > 12.5 µg/mL; MIC (Klebsiella pneumoniae [19]): 0.025 µg/mL (≈ 0.0618 µM)

From ChEMBL document CHEMBL1130625, “Synthesis and antibacterial activity of novel 7-(3-substituted-3 or 4-trifluoromethyl-1-pyrrolidinyl)-8-methoxyfluoroquinolones” (1998)
